What was measured:
[1] = test system: bovine aortic endothelial cells; test: xCELLigence cell impedance in bovine aortic endothelial cells; assay type: cell-based; conditions: test compounds at 62.5, 125 or 250 μM; FIG. 9; negative response = indirect vasodilator
Description: (§1) Briefly, 50 μl of cell culture medium (DMEM low glucose supplemented with 10% fetal bovine serum at 37° C.) was added to each well of an E-Plate 96 (Roche), and the background impedance in each well was measured. 50 μl of A-10 cell suspension (10,000 cells/well) was then added to the appropriate wells of the E-Plate 96. Cell index was monitored for each well of the E-Plate 96 in RTCA SP Station within the cell culture incubator. After overnight incubation for 16-20 hours at 5% CO2 and 95% humidity, 100 μl of test compound solution (test compounds were prepared in DMSO and diluted with cell culture medium to a final DMSO concentration of 0.25%) was added to the appropriate wells of the E-Plate 96 and cell index values were measured immediately following compound treatment every 20 seconds for 3 hours. Cell index value is baseline-corrected by subtracting the cell index of vehicle-treated cells and normalized by dividing by the cell index at the time point immediately before compound addition. Baseline normalized cell index as a function of time is plotted using Roche RTCA software.
The xCELLigence SP system was also used to measure changes in cellular impedance following the treatment of bovine aortic endothelial cells (European Collection of Cell Cultures) with test compound. The method employed is the same for the A10 embryonic vascular smooth muscle cells described above but with the cell culture medium supplemented with 15% fetal bovine serum instead of 10%.
Compounds may interact with vascular endothelial cells causing the release of substances such as nitric oxide and endothelium-derived hyperpolarising factor, which in turn act on the vascular smooth muscle cells causing vasodilatation and lowering blood pressure. Such compounds are termed indirect vasodilators.

[2] = test system: Rat (NRK-52E) renal proximal tubule cells; test: Rescue of renal proximal tubule cells from cisplatin cytotoxicity (WST-8/CCK-8); assay type: cell-based; conditions: test compound 30 μM; cisplatin 5 μg/ml; 24 or 48 hours; FIG. 10
Description: Rat (NRK-52E) renal proximal tubule cells grown in DMEM+10% FBS+1% NEAA+2 mM glutamine were placed in 96 well plates at 10,000 cells/well and incubated at 37° C. with 5% CO2 overnight. Test compounds at a concentration of 30 μM were incubated with human or rat renal proximal tubule cells for 2 hours at 37° C. and 5% CO2. Cis-diamminedichloroplatinum[…] (cisplatin) was then added at […] and each cell population was then incubated for 24 or 48 hours at 37° C. with 5% CO2. Test compounds were maintained at their original concentrations. To assay the cytotoxic effects of cisplatin on the rat renal proximal tubule cells a highly water-soluble tetrazolium salt, WST-8, which is reduced by dehydrogenases in cells to produce formazan, a water-soluble, yellow-coloured indicator dye was used following the manufacturer's instructions (specifically the Cell Count Kit-8 (CCK-8) assay from Sigma). Plate absorbance of the WST-8 (CCK-8) reagent was then measured at 450 nm using a Thermo Scientific Multiskan EX plate reader.

[3] = test system: A10 embryonic vascular smooth muscle cells; test: xCELLigence cell impedance in A10 vascular smooth muscle cells; assay type: cell-based; conditions: test compounds at 62.5, 125 or 250 μM; FIG. 8; negative response = direct vasodilator
Source text: The xCELLigence SP system (Roche) was used to measure changes in cellular impedance (cell index) following the treatment of A10 embryonic vascular smooth muscle cells (ATCC, CRL-1476) with test compound. In this in vitro cell based experimental system a negative impedance profile correlates with blood pressure reduction in rats—a decrease in impedance is associated with vasodilatation and an increase in impedance is associated with vasoconstriction (Stallaert W, Dorn J F, van der Westhuizen E, Audet M & Bouvier M. Impedance responses reveal β-adrenergic signaling […] and allow classification of ligands with distinct signalling profiles PLoS ONE 2012; 7(1):e29420, doi:10.1371/journal.pone.0029420).
as §1
Compounds may achieve reductions in blood pressure by interaction with vascular smooth muscle cells causing these cells to relax resulting in vasodilatation and a reduction in blood pressure. These are termed direct vasodilators.

[4] = test system: SHR; test: Kidney fibrosis in SHR (Masson's trichrome); assay type: in vivo, rat; conditions: SHR on 2.2% salt diet; 500 pmol/kg/min; 4 weeks; FIG. 12, *p<0.05
Source text: (§2) Fourteen week old SHR (on a 2.2% salt diet; Glen Forrest Stockfeeders) were randomly assigned to zero time control (14 week old rats), test compound treatment drinking solution (500 pmol/kg/min in deionised distilled water) or control drinking solution (5% ethanol in deionised distilled water). The rats assigned to zero time control group (14 week old rats) were anaesthetised and had their kidneys and liver harvested while rats assigned to control and test compound treatment were weighed twice weekly and had their drinking solution intake monitored to allow adjustment of the test compound concentration in the drinking solution to maintain a constant dose over the 4-week study period. Blood pressure was measured twice weekly by tail cuff plethysmography (PowerLab, ADInstruments, Castle Hill, NSW, Australia). After 4 weeks rats were anaesthetised (18 week old rats), and their kidneys and liver harvested. To quantitate tissue fibrosis and/or fat content, tissue slices ≤3 mm thick were fixed in 10% buffered formalin for 24 hours, processed and embedded in paraffin. Three micron transverse sections were stained using Masson's trichrome stain. A minimum of 20 random fields at magnification ×20 from transverse sections (5 at each of 2 levels) were digitized and the degree of fibrosis and fat content determined as a percent of field area of each digitized image using Image-Pro Plus V.7 (Media Cybernetics, Bethesda, Md., USA) then averaged to determine the level of fibrosis and/or fat content for each rat.

[5] = test system: SHR; test: Hepatic fibrosis in SHR (Masson's trichrome); assay type: in vivo, rat; conditions: for Fibrosis in the liver compared to 18 week controls: SHR, 500 pmol/kg/min, 4 weeks, FIG. 13, *p<0.05, **p<0.025, ***p<0.01
Source text: as §2

| Structure (SMILES) | impedance response for bovine aortic endothelial cells [1] | Cisplatin induced cell death in renal proximal tubular cells [2] | impedance response for A10 vascular smooth muscle cells [3] | Fibrosis in the kidney compared to 18 week controls [4] | Tissue architecture of portal tracts in Masson's tri-chrome stained liver sections ([5]; SHR treated rats vs control, FIG. 14) | Fibrosis in the liver compared to 18 week controls [5] |
| --- | --- | --- | --- | --- | --- | --- |
| NC(=O)CCc1cc(-c2cccc(F)c2)ccc1-c1cccc(O)c1 [Compound P1, 3-(3″-Fluoro-3-hydroxy-1,1′:4′,1′-terphenyl-2′-yl)propanamide] | Negative impedance responses | decreased | – | – | – | – |
| NC(=O)CCc1cc(-c2ccc(F)cc2)ccc1-c1cccc(O)c1 [Compound P3, 3-(4″-Fluoro-3-hydroxy-1,1′:4′,1″-terphenyl-2′-yl)propanamide] | Negative impedance responses | decreased | Negative impedance responses | – | – | – |
| NC(=O)CCc1cc(-c2ccccn2)ccc1-c1cccc(O)c1 [Compound P4, 3-[3′-Hydroxy-4-(pyridin-2-yl)biphenyl-2-yl]propanamide] | Negative impedance responses | decreased | – | – | – | – |
| NC(=O)CCc1cc(-c2ccncc2)ccc1-c1cccc(O)c1 [Compound P6, 3-[3′-Hydroxy-4-(pyridin-4-yl)biphenyl-2-yl]propanamide] | Negative impedance responses | decreased | – | – | – | – |
| NC(=O)CCc1cc(-n2cccc2)ccc1-c1cccc(O)c1 [Compound P9, 3-(3′-Hydroxy-4-(1H-pyrrol-1-yl)-[1,1′-biphenyl]-2-yl)propanamide] | Negative impedance responses | decreased | Negative impedance responses | decreased | normal tissue architecture has been restored | decreased |
| NC(=O)CCc1cc(-c2ccoc2)ccc1-c1cccc(O)c1 [Compound P11, 3-(4-(Furan-3-yl)-3′-hydroxy-[1,1′-biphenyl]-2-yl)propanamide] | Negative impedance responses | decreased | Negative impedance responses | decreased | – | decreased |
| NC(=O)CCc1cc(-c2cc(F)cc(F)c2)ccc1-c1cccc(O)c1 [Compound P33, 3-(3″,5″-Difluoro-3-hydroxy-1,1′:4′,1″-terphenyl-2′-yl)propanamide] | Negative impedance responses | decreased | Negative impedance responses | – | – | – |
| Cn1nccc1-c1ccc(-c2cccc(O)c2)c(CCC(N)=O)c1 [Compound P38, 3-[3′-Hydroxy-4-(1-methyl-1H-pyrazol-5-yl)biphenyl-2-yl]propanamide] | Negative impedance responses | decreased | – | – | – | – |
| Cc1noc(C)c1-c1ccc(-c2cccc(O)c2)c(CCC(N)=O)c1 [Compound P41, 3-(4-(3,5-Dimethylisoxazol-4-yl)-3′-hydroxy-[1,1′-biphenyl]-2-yl)propanamide] | Negative impedance responses | decreased | – | – | – | – |
| Cc1n[nH]c(C)c1-c1ccc(-c2cccc(O)c2)c(CCC(N)=O)c1 [Compound P42, 3-[4-(3,5-Dimethyl-1H-pyrazol-4-yl)-3′-hydroxybiphenyl-2-yl]propanamide] | Negative impedance responses | decreased | – | – | – | – |
| Cc1ccsc1-c1ccc(-c2cccc(O)c2)c(CCC(N)=O)c1 [Compound P43, 3-[3′-Hydroxy-4-(3-methylthiophen-2-yl)biphenyl-2-yl]propanamide] | Negative impedance responses | decreased | – | – | – | – |
| Cc1cscc1-c1ccc(-c2cccc(O)c2)c(CCC(N)=O)c1 [Compound P44, 3-[3′-Hydroxy-4-(4-methylthiophen-3-yl)biphenyl-2-yl]propanamide] | Negative impedance responses | decreased | – | – | – | – |
| Cc1n[nH]cc1-c1ccc(-c2cccc(O)c2)c(CCC(N)=O)c1 [Compound P45, 3-[3′-Hydroxy-4-(3-methyl-1H-pyrazol-4-yl)biphenyl-2-yl]propanamide] | – | decreased | – | – | – | – |
| Cc1cccc(-c2ccc(-c3cccc(O)c3)c(CCC(N)=O)c2)c1 [Compound P46, 3-(3-Hydroxy-3″-methyl-1,1′:4′,1″-terphenyl-2′-yl)propanamide] | Negative impedance responses | decreased | Negative impedance responses | – | – | – |
| NC(=O)CCc1cc(-c2cccc(C(=O)O)c2)ccc1-c1cccc(O)c1 [Compound P47, 3′-(3-Amino-3-oxopropyl)-3″-hydroxy-1,1′:4′,1″-terphenyl-3-carboxylic Acid] | Negative impedance responses | – | – | – | – | – |
| NC(=O)CCc1cc(-c2cccc(O)c2)ccc1-c1cccc(O)c1 [Compound P48, 3-(3,3″-Dihydroxy-1,1′:4′,1″-terphenyl-2′-yl)propanamide] | Negative impedance responses | – | – | – | – | – |
| NC(=O)CCc1cc(-c2ccc(N)cc2)ccc1-c1cccc(O)c1 [Compound P49, 3-(4″-Amino-3-hydroxy-1,1′:4′,1″-terphenyl-2′-yl)propanamide] | Negative impedance responses | decreased | – | – | – | – |
| COc1cccc(-c2ccc(-c3cccc(O)c3)c(CCC(N)=O)c2)c1 [Compound P50, 3-(3-Hydroxy-3″-methoxy-1,1′:4′,1″-terphenyl-2′-yl)propanamide] | Negative impedance responses | decreased | – | – | – | – |

Reference: US10183908B2, “Compositions for the treatment of kidney and/or liver disease” (VECTUS BIOSYSTEMS LIMITED, priority 2015, dated 2019)
